These are literature values, as cited in paper PMC2805559 (Journal of medicinal chemistry, 2009).

One data set has as its system Hsp90-IP6K2 interaction. Conditions: ref [16].
For a further data set, the system named is tumor. The conditions noted are these: ref [1].

As to `C=CCNC1=C2C[C@@H](C)C[C@H](OC)[C@H](O)[C@@H](C)/C=C(\C)[C@H](OC(N)=O)[C@@H](OC)/C=C\C=C(/C)C(=O)NC(=CC1=O)C2=O` [17-AAG, 17-allylamino, 17-demethoxygeldanamycin], the “effect on binding of IP6K2 to Hsp90” value in the data set with Hsp90-IP6K2 interaction is “does not affect the binding”.
For the compound Sansalvamide A, the anti-tumor activity entry in the data set on tumor was “micromolar potency”.
